From the supplement of paper PMC11208160

Test: recombinant UMI read abundance after kanamycin selection (control-corrected) (log10(CPM+1)); higher = more efficient recombination; extreme values may be limits of the assay; sequences stand for … in AGTGCAGAGAAAATCGGCCAGTTTTCTCTGCCTGCAGTCCGCATGCCGTGGGACCCCTTGGGTTCTAACCTGTTGCCTAGATTTATGCAGCGGACTGCCTTTCTCCCAAAGTGATAAACCGG…AGGTTGGTTTCACT; site = the 11-nt donor
Procedure, shortened: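 Values are reported as log10(CPM+1), obtained by converting sequencing counts to CPM, averaging replicates and scaling by control-derived factors. The counts came from recombinant UMIs amplified by PCR across the donor–target junction. These UMIs came from a pooled Escherichia coli screen of donor and donor-binding-loop pairs for the IS621 bridge recombinase, plated with IPTG (0.07 mM) plus kanamycin or left unselected, in two replicates each.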
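Note: IS621 bridge recombinase in Escherichia coli cells against a fixed T5 target plasmid.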

Sequence	recombinant UMI read abundance (log10)
GGGCCAACATGGACCGGTTTTCCCGGTAATCCGTATTTGTA (site GGACCAACTTA)	0.317
GGGCCAACATGGACCGGTTTTCCCGGTAATCCGTATTTGTA (site GGCCCAACTTA)	0.0205
GGGCCAACATGGACCGGTTTTCCCGGTAATCCGTATTTGTA (site GGGCCAACTTA)	0.645
GGGCCAACATGGACCGGTTTTCCCGGTAATCCGTATTTGTA (site GGTCCAACTTA)	0.0061
GGGCGACCATGGACCGGTTTTCCCGGTAATCCGTATTTGTT (site GGGCGACCTAA)	0
GGGCGCCCATGGACCGGTTTTCCCGGTAATCCGTATTTGGG (site GGGCGCCCTCC)	0.0048
GGGCTGGCATGGACCGGTTTTCCCGGTAATCCGTATTTGAC (site GGGCTGGCTGT)	0.6
GGGGAGCCATGGACCGGTTTTCCCGGTAATCCGTATTTGAA (site GGGGAGCCTTT)	0
GGGGATACATGGACCGGTTTTCCCGGTAATCCGTATTTGAT (site GGGGATACTAT)	1.2
GGGGCAACATGGACCGGTTTTCCCGGTAATCCGTATTTGCA (site GGGGCAACTTG)	1.4
GGGGCAACATGGACCGGTTTTCCCGGTAATCCGTATTTGCA (site GGGGCACCTTG)	0.00712
GGGGCAACATGGACCGGTTTTCCCGGTAATCCGTATTTGCA (site GGGGCAGCTTG)	0
GGGGCAACATGGACCGGTTTTCCCGGTAATCCGTATTTGCA (site GGGGCATCTTG)	0
GGGGCACCATGGACCGGTTTTCCCGGTAATCCGTATTTGAA (site GGGGCACCTTA)	0.00926
GGGGCACCATGGACCGGTTTTCCCGGTAATCCGTATTTGAA (site GGGGCACCTTC)	0.018
GGGGCACCATGGACCGGTTTTCCCGGTAATCCGTATTTGAA (site GGGGCACCTTG)	0
GGGGCACCATGGACCGGTTTTCCCGGTAATCCGTATTTGAA (site GGGGCACCTTT)	0.0108
GGGGCACCATGGACCGGTTTTCCCGGTAATCCGTATTTGCC (site GGGGCACCTAG)	0.0374
GGGGCACCATGGACCGGTTTTCCCGGTAATCCGTATTTGCC (site GGGGCACCTCG)	0.0076
GGGGCACCATGGACCGGTTTTCCCGGTAATCCGTATTTGCC (site GGGGCACCTGG)	0
GGGGCACCATGGACCGGTTTTCCCGGTAATCCGTATTTGCC (site GGGGCACCTTG)	0.00491
GGGGCCCCATGGACCGGTTTTCCCGGTAATCCGTATTTGCA (site GGGGCACCTTG)	0.00505
GGGGCCCCATGGACCGGTTTTCCCGGTAATCCGTATTTGCA (site GGGGCCCCTTG)	0.411
GGGGCCCCATGGACCGGTTTTCCCGGTAATCCGTATTTGCA (site GGGGCGCCTTG)	0.0155
GGGGCCCCATGGACCGGTTTTCCCGGTAATCCGTATTTGCA (site GGGGCTCCTTG)	0.0122

Sequence	recombinant UMI read abundance (log10)
GGGGGACCATGGACCGGTTTTCCCGGTAATCCGTATTTGCA (site GGGGAACCTTG)	0
GGGGGACCATGGACCGGTTTTCCCGGTAATCCGTATTTGCA (site GGGGCACCTTG)	0
GGGGGACCATGGACCGGTTTTCCCGGTAATCCGTATTTGCA (site GGGGGACCTTG)	0
GGGGGACCATGGACCGGTTTTCCCGGTAATCCGTATTTGCA (site GGGGTACCTTG)	0
GGGGTACCATGGACCGGTTTTCCCGGTAATCCGTATTTGCA (site GGGGAACCTTG)	0
GGGGTACCATGGACCGGTTTTCCCGGTAATCCGTATTTGCA (site GGGGCACCTTG)	0
GGGGTACCATGGACCGGTTTTCCCGGTAATCCGTATTTGCA (site GGGGGACCTTG)	0
GGGGTACCATGGACCGGTTTTCCCGGTAATCCGTATTTGCA (site GGGGTACCTTG)	0
GGGGTGGCATGGACCGGTTTTCCCGGTAATCCGTATTTGGT (site GGAGTGGCTAC)	0.553
GGGGTGGCATGGACCGGTTTTCCCGGTAATCCGTATTTGGT (site GGCGTGGCTAC)	0.0131
GGGGTGGCATGGACCGGTTTTCCCGGTAATCCGTATTTGGT (site GGGGTGGCTAC)	0.659
GGGGTGGCATGGACCGGTTTTCCCGGTAATCCGTATTTGGT (site GGTGTGGCTAC)	0.146
GGGTATCCATGGACCGGTTTTCCCGGTAATCCGTATTTGTT (site CGGAATCCTAA)	0
GGGTATCCATGGACCGGTTTTCCCGGTAATCCGTATTTGTT (site GGGTATCCTAA)	0.0203
GGGTCACCATGGACCGGTTTTCCCGGTAATCCGTATTTGCA (site GGGACACCTTG)	0
GGGTCACCATGGACCGGTTTTCCCGGTAATCCGTATTTGCA (site GGGCCACCTTG)	0
GGGTCACCATGGACCGGTTTTCCCGGTAATCCGTATTTGCA (site GGGGCACCTTG)	0
GGGTCACCATGGACCGGTTTTCCCGGTAATCCGTATTTGCA (site GGGTCACCTTG)	0
GGGTGTGCATGGACCGGTTTTCCCGGTAATCCGTATTTGGC (site GGGTGTGCTGC)	3
GGGTTCCCATGGACCGGTTTTCCCGGTAATCCGTATTTGTC (site GGGTTCCCTGA)	0
GGTAAACCATGGACCGGTTTTCCCGGTAATCCGTATTTGAA (site GGTAAACCTTT)	0
GGTACGGCATGGACCGGTTTTCCCGGTAATCCGTATTTGTT (site GGTACGACTAA)	0.00937
GGTACGGCATGGACCGGTTTTCCCGGTAATCCGTATTTGTT (site GGTACGCCTAA)	0.0122
GGTACGGCATGGACCGGTTTTCCCGGTAATCCGTATTTGTT (site GGTACGGCTAA)	0.0127
GGTACGGCATGGACCGGTTTTCCCGGTAATCCGTATTTGTT (site GGTACGTCTAA)	0

Sequence	recombinant UMI read abundance (log10)
GGTACGTCATGGACCGGTTTTCCCGGTAATCCGTATTTGCT (site GGTACGTCTAA)	0.0386
GGTACGTCATGGACCGGTTTTCCCGGTAATCCGTATTTGCT (site GGTACGTCTAC)	0.0226
GGTACGTCATGGACCGGTTTTCCCGGTAATCCGTATTTGCT (site GGTACGTCTAG)	2
GGTACGTCATGGACCGGTTTTCCCGGTAATCCGTATTTGCT (site GGTACGTCTAT)	0.00579
GGTACGTCATGGACCGGTTTTCCCGGTAATCCGTATTTGGT (site GGTACGTCTAA)	0.00807
GGTACGTCATGGACCGGTTTTCCCGGTAATCCGTATTTGGT (site GGTACGTCTAC)	1.33
GGTACGTCATGGACCGGTTTTCCCGGTAATCCGTATTTGGT (site GGTACGTCTAG)	0
GGTACGTCATGGACCGGTTTTCCCGGTAATCCGTATTTGGT (site GGTACGTCTAT)	0.339
GGTACGTCATGGACCGGTTTTCCCGGTAATCCGTATTTGTG (site GGTACGTCTAA)	0.0133
GGTACGTCATGGACCGGTTTTCCCGGTAATCCGTATTTGTG (site GGTACGTCTCA)	0.338
GGTACGTCATGGACCGGTTTTCCCGGTAATCCGTATTTGTG (site GGTACGTCTGA)	0
GGTACGTCATGGACCGGTTTTCCCGGTAATCCGTATTTGTG (site GGTACGTCTTA)	0
GGTACGTCATGGACCGGTTTTCCCGGTAATCCGTATTTGTT (site AGTACGTCTAA)	0.0112
GGTACGTCATGGACCGGTTTTCCCGGTAATCCGTATTTGTT (site CGTACGTCTAA)	0
GGTACGTCATGGACCGGTTTTCCCGGTAATCCGTATTTGTT (site GATACGTCTAA)	0.00543
GGTACGTCATGGACCGGTTTTCCCGGTAATCCGTATTTGTT (site GCTACGTCTAA)	0.0161
GGTACGTCATGGACCGGTTTTCCCGGTAATCCGTATTTGTT (site GGAACGTCTAA)	0.0323
GGTACGTCATGGACCGGTTTTCCCGGTAATCCGTATTTGTT (site GGCACGTCTAA)	0.0185
GGTACGTCATGGACCGGTTTTCCCGGTAATCCGTATTTGTT (site GGGACGTCTAA)	0.0133
GGTACGTCATGGACCGGTTTTCCCGGTAATCCGTATTTGTT (site GGTAAGTCTAA)	0
GGTACGTCATGGACCGGTTTTCCCGGTAATCCGTATTTGTT (site GGTACATCTAA)	0.535
GGTACGTCATGGACCGGTTTTCCCGGTAATCCGTATTTGTT (site GGTACCTCTAA)	0.0198
GGTACGTCATGGACCGGTTTTCCCGGTAATCCGTATTTGTT (site GGTACGACTAA)	0.0066
GGTACGTCATGGACCGGTTTTCCCGGTAATCCGTATTTGTT (site GGTACGCCTAA)	0.0208
GGTACGTCATGGACCGGTTTTCCCGGTAATCCGTATTTGTT (site GGTACGGCTAA)	0.0154
